Type in all cases: cell-based
For series [1], the system named is Plasmodium falciparum rings and trophozoites/schizonts. The series can be described thus: Stage-specific profiling using synchronized cultures. To be noted: highest concentration tested, 24 h exposure, read 24 h after postexposure wash. As for the experimental part: Parasite cultures with ≥80% trophozoites and ≥80% rings were obtained by synchronization with 5% sorbitol ([42]). The cultures were synchronized twice, at 0 h and 31 h, to obtain young rings which were up to 3 h old. To obtain early schizont stages, the cultures were synchronized twice, with the second synchronization being 6 to 8 h after the first. […] The plates were washed 4 times after the incubation in order to dilute the drug concentration by >1,000-fold. The plates were incubated for another 24 h at 37°C, following which SYBR green staining was used to read the plates as described above.

Series [2] concerns P. falciparum strain 3D7A. The series can be described thus: 3H-hypoxanthine incorporation assay, strain 3D7A. Particulars: Plasmodium falciparum, read-out: IC50 (μM) 3D7A. The protocol:
The cross-resistance assay used relies on the parasites’ incorporation of labeled 3H-hypoxanthine, which is proportional to P. falciparum growth. In vitro cross-resistance of the compounds is measured as the ratio between the IC50 for the tested P. falciparum strain and the IC50 for strain 3D7A. Every replicate from a multidrug-resistant (MDR) strain involved a simultaneous determination using a 3D7A replicate to avoid any artifact linked to experimental conditions.
The three strains used for the cross-resistance assay were 3D7A, Dd2, and W2, based on their resistance profiles; the assay was carried out by GSK, Tres Cantos. Strain 3D7A is chloroquine sensitive, strain Dd2 is resistant to chloroquine, mefloquine, and pyrimethamine ([57]), and strain W2 is resistant to chloroquine, quinine, pyrimethamine, cycloguanil, and sulfadoxine (from the Malaria Research and Reference Reagent Resource Center [MR4]) ([58]). A culture of red blood cells (RBCs) parasitized by the corresponding strain (0.5% parasitemia, 2% hematocrit) in RPMI 1640, […], and 5 μM hypoxanthine was exposed to 9 dilutions (3-fold serial dilutions) of the compound starting at 5 μM. One hundred microliters of culture volume was plated in 96-well flat-bottom microtiter plates with 0.5 μl drug (200× stock in DMSO). Plates were incubated for 24 h at 37°C, 5% CO2, 5% O2, 90% N2. Next, 3H-hypoxanthine was added and plates were incubated for another 24-h period. After that, parasites were harvested on a glass fiber filter using a TomTec cell harvester 96. Filters were dried, and melt-on scintillator sheets were used to determine the incorporation of 3H-hypoxanthine. Radioactivity was measured using a MicroBeta counter. […] IC50 values were determined using the Grafit 7 program ([41]).

A further series relates to HepG2 cells. The series can be described thus: MTT assay for cell cytotoxicity against HepG2 cells. Particulars: for LD50 (50% lethal dose), MTT assay: HepG2 cells, 48 h, ± SD. The protocol:
HepG2 cells (University of Salford stocks, purchased from American Type Culture Collection [ATCC], USA), were grown in medium consisting of RPMI 1640, 2 mM L-glutamine, HEPES, 10% fetal bovine serum, 1% nonessential amino acids, and 1% penicillin-streptomycin. Cells were calculated on a hemocytometer to make a new cell-medium solution to a concentration of 5,000 cells/100 μl, and 100 μl of this new cell solution was added into each well of the 96-well plate. After 24 h of incubation, 100-μl amounts of the drug prepared in the medium were added to the wells. This was repeated in triplicate, and the plate was incubated for a further 48 h ([56]). After the incubation period, 50 μl of MTT solution was added to each well and incubated for 3 h. The liquid in each well was aspirated carefully, 200 μl of DMSO was added to each well, and the results were read on the Ascent plate reader.
In general terms: Tetrazolium dyes change colour on reduction, which living cells bring about.

A further series addresses T1, hERG potassium channel (Homo sapiens, UniProt Q12809).
T1 construct: host or cells: Chinese hamster ovary (CHO) cells
The series can be described thus: hERG channel inhibition assay (CHO cells, whole-cell voltage clamp, Cyprotex). Particulars: for selectivity ratio at 300 s / inhibition at 300 s, 0.016 µM / inhibition at 300 s, 0.08 µM / inhibition at 300 s, 0.4 µM / inhibition at 300 s, 2 µM / inhibition at 300 s, 10 µM / inhibition at 300 s, 50 µM: human; for selectivity ratio at 300 s: CHO cells expressing the hERG potassium channel, read-out: Selectivity index, IC50 hERG/IC50 parasites. As for the experimental part: For each replicate, the hERG response was calculated using the following equation: % hERG response = post-compound-application current (nA)/pre-compound-application current (nA) × 100.
The experiment to test the potential of emetine, (−)-R,S-dehydroemetine, and (−)-S,S-dehydroisoemetine to inhibit the hERG channel was outsourced to Cyprotex, UK. One-hundred-microliter amounts of a 20 mM concentration of each of the three compounds in DMSO was provided to Cyprotex. […] Chinese Hamster ovary cells expressing the hERG potassium channel were dispensed into 384-well planar arrays, and hERG tail currents were measured by whole-cell voltage clamping. Amphotericin B was used as a perforating agent that was circulated underneath the PatchPlate to gain electrical access to the cell. The pre-compound-application hERG current was measured. Emetine, (−)-R,S-dehydroemetine, and (−)-S,S-dehydroisoemetine in ranges of concentrations were then added to the cells, and a second recording of the hERG current was made. The test compound was left in contact with the cells for 300 s before currents were recorded. […] All buffers, cell suspensions, and drug compound solutions were at room temperature. The percentage of change in hERG current was measured and used to calculate an IC50 value.
Each concentration was tested in 4 replicate wells on the PatchPlate (maximum of 24 data points). Filters were applied to ensure that only acceptable cells were used to assess hERG inhibition.

As a reminder, the IC50 is the midpoint of a concentration-inhibition curve. The inhibition is the relative decrease from the control value, in per cent. Lower therefore signals a response near the control.

Where a name gives a salt, the structure may show the parent alone.

T1 sequence (Q12809 whole entry): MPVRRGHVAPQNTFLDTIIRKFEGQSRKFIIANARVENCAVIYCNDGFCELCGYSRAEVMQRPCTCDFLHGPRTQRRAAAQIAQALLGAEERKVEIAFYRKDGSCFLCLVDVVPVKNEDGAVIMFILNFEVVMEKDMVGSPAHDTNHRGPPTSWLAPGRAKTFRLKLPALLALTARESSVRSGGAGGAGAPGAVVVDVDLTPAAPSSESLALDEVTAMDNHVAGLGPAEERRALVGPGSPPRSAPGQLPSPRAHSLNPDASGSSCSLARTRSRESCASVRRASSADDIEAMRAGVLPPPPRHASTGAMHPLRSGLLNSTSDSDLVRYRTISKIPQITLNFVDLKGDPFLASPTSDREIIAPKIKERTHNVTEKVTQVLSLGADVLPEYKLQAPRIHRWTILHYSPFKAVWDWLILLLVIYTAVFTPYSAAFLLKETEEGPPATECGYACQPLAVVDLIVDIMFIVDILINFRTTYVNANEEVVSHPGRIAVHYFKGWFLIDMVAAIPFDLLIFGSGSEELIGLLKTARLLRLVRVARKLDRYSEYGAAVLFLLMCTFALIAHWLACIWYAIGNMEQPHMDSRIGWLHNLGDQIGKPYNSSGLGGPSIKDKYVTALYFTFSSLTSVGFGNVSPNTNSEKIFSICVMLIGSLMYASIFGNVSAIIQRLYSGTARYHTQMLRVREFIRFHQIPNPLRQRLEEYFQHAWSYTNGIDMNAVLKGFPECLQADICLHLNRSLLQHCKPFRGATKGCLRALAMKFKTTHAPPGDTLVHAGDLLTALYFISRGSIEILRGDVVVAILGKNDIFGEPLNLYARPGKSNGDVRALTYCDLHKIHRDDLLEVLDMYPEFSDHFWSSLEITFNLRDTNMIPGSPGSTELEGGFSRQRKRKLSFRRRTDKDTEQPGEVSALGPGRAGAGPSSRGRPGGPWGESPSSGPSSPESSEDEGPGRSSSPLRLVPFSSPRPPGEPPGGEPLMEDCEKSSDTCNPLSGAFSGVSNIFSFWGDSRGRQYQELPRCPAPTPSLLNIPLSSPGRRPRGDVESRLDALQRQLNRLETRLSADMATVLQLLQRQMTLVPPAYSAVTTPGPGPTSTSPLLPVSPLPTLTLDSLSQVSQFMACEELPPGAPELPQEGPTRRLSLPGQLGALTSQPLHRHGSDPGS

Regarding `CCC1=C(C[C@H]2NCCc3cc(OC)c(OC)cc32)C[C@H]2c3cc(OC)c(OC)cc3CCN2C1` [(−)-R,S-dehydroemetine, (S)-2-((R)-6,7-dimethoxy-1,2,3,4-tetrahydro-isoquinolin-1-ylmethyl)-3-ethyl-9,10-dimethoxy-1,6,7,11b-tetrahydro-4H-pyrido[2,1-a]isoquinoline * dihydrobromide], in series [1] (8500 (nM per legend)), the “Parasitaemia (percentage) Rings” value was found to be 50.21% and the “Parasitaemia (percentage) Trophozoites” value is recorded as 19.75%. Also, the half-maximal inhibitory concentration (IC50) in series [2] came out at 0.146 µM. In the series with HepG2 cells, the “Selectivity index, LD50 HepG2 cells/IC50 parasites” value is 2.37 and the “LD50 (50% lethal dose), MTT assay” value amounted to 168.07 ± 8.65 nM. In addition, at hERG potassium channel, inhibition was half-maximal at 19.3 µM (IC50); the “hERG channel inhibition (in words)” value is “not an hERG channel inhibitor”; the selectivity ratio at 300 s was more than 271; the inhibition at 300 s, 0.016 µM came out at 7.79%. Also, on hERG potassium channel, the inhibition at 300 s, 0.08 µM is 6.34%; the inhibition at 300 s, 0.4 µM worked out at 12.7%; the inhibition at 300 s, 2 µM came to 7.21%; the inhibition at 300 s, 10 µM stood at 39.4%. This compound yielded an inhibition at 300 s, 50 µM at hERG potassium channel of 61.4%.

`CCC1=C(C[C@@H]2NCCc3cc(OC)c(OC)cc32)C[C@H]2c3cc(OC)c(OC)cc3CCN2C1` [(−)-S,S-dehydroisoemetine, (S)-2-((S)-6,7-dimethoxy-1,2,3,4-tetrahydro-isoquinolin-1-ylmethyl)-3-ethyl-9,10-dimethoxy-1,6,7,11b-tetrahydro-4H-pyrido[2,1-a]isoquinoline * dihydrobromide]: in series [1] (200 (μM per legend)), the “Parasitaemia (percentage) Rings” value amounted to 70.98% and the “Parasitaemia (percentage) Trophozoites” value amounted to 24.67%. Further, the 50% inhibitory concentration (IC50) in series [2] was found to be 1.03 µM. Also, in the series with HepG2 cells, the “Selectivity index, LD50 HepG2 cells/IC50 parasites” value was 0.69 and the “LD50 (50% lethal dose), MTT assay” value amounted to 1429 ± 180 nM. Besides, on hERG potassium channel, the half-maximal inhibitory concentration (IC50) is 2.99 µM; the “hERG channel inhibition (in words)” value is listed as “potent inhibitor”; the selectivity ratio at 300 s turned out to be 1.48; the inhibition at 300 s, 0.016 µM stood at 8.13%. At hERG potassium channel, this compound returned an inhibition at 300 s, 0.08 µM of 4.61%; an inhibition at 300 s, 0.4 µM of 9.33%; an inhibition at 300 s, 2 µM of 36%; an inhibition at 300 s, 10 µM of 70.7%. Also, the inhibition at 300 s, 50 µM at hERG potassium channel is 96.9%.
